Test results as given in patent US20150258129A1, “Method for Increasing the Activity of Lysosomal Enzymes” (Mount Sinai School of Medicine of New York University, priority 1998, published 2015).
Residue numbers refer to the chain shown, from its start.

Columns and labels:
[1] = test system: lysosomal acid β-galactosidase (β-Gal); assay: Intracellular enhancement of β-Gal activity in GM1-gangliosidosis fibroblasts; format: cell-based, human
Description: In FIG. 7A, GM1-gangliosidosis fibroblasts were cultured with DGJ (4) at 500 μM for 5 days before being collected for enzyme assay. In FIG. 7B, GM1-gangliosidosis fibroblasts were cultured with 4-epi-isofagomine (21) at 50 μM for 5 days before being collected for enzyme assay. Strains BGF-1 and BGF-6 were diagnosed as infantile type, and all others were juvenile or adult types.
(§1) The Epstein-Barr virus-transformed lymphoblast lines from a normal adult and a Fabry patient with R301Q mutation in α-Gal A (38) were cultured in RPMI-1640 medium (Nissui Pharmaceutical Co., Tokyo, Japan) supplemented with 10% fetal calf serum (FCS) at 37° C. under 5% CO2. Human fibroblasts from Gaucher and GM1-gangliosidosis patients were cultured in McCoy 5A medium supplemented with 10% FCS at 37° C. under 5% CO2.
Cells were cultured in the presence or absence of inhibitor for 5 days. After being washed twice with PBS, the cells were harvested and homogenized in 200 μl of H2O, and 10 μl of the supernatant obtained by centrifugation at 10,000 g was incubated at 37° C. with 50 μl of the substrate solution of 1 mM 4-methylumbelliferyl β-D-galactoside (4-MU-β-Gal) in 0.1 M citrate buffer (pH 4.5) for enzyme assay. One unit of intracellular enzyme activity was defined as one nmol of 4-methylumbelliferone released per hour at 37° C.

human lysosomal α-Gal A = target: T1, human lysosomal α-Gal A (Homo sapiens, UniProt P06280); assay: In vitro inhibition of α-Gal A (recombinant, expressed in Sf-9 insect cells); format: biochemical
T1 construct: made in house; host or cells: Sf-9 insect cells, recombinant baculovirus
T1 sequence (P06280 32-429): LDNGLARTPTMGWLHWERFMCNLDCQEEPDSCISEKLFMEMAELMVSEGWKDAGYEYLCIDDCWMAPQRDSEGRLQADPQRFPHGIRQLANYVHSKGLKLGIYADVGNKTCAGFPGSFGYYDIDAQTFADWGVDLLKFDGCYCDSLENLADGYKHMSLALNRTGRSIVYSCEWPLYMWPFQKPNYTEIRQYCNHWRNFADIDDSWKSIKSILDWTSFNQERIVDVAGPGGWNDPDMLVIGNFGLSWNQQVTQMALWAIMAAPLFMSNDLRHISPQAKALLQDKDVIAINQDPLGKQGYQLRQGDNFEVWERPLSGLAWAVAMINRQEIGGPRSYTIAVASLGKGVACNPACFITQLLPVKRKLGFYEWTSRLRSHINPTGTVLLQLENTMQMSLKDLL

mutant α-Gal A (R301Q) [2] = target: T2, mutant α-Gal A (R301Q) (Homo sapiens, UniProt P06280, R301Q); set-up: endogenous in cells; host or cells: Epstein-Barr virus-transformed lymphoblasts from a Fabry patient (R301Q); settings: R301Q or Q279E mutations; cited from earlier work
T2 sequence (P06280 32-429 R301Q): T1 sequence (P06280 32-429) with R270Q

mutant (R301Q) α-Gal A = target: T3, mutant (R301Q) α-Gal A (Homo sapiens, UniProt P06280, R301Q); settings: oral administration, mice overexpressing mutant (R301Q) α-Gal A; cited from earlier work
T3 construct: host or cells: transgenic mice (organs)
T3 sequence (P06280 32-429 R301Q): T1 sequence (P06280 32-429) with R270Q

mutant α-Gal A (R301Q) [3] = target: T2, mutant α-Gal A (R301Q); settings: neutral pH; cited from earlier work
[4] = target: coffee bean α-galactosidase (Coffea arabica, UniProt Q42656); settings: cited from earlier work
coffee bean α-galactosidase, sequence (Q42656 16-378): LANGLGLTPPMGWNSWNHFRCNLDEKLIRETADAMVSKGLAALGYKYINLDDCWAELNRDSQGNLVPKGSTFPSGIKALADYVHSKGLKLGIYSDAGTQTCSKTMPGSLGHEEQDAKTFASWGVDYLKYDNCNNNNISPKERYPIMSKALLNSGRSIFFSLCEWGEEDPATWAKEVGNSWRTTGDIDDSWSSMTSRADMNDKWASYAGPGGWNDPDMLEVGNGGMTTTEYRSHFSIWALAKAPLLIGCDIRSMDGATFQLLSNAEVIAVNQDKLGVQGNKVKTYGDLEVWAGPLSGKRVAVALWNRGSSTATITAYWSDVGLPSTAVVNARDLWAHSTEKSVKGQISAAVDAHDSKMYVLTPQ

mutant α-Gal A (R301Q) [5] = target: T2, mutant α-Gal A (R301Q); assay: Intracellular enhancement of α-Gal A activity in Fabry lymphoblasts; format: cell-based; set-up: endogenous in cells; host or cells: Epstein-Barr virus-transformed lymphoblasts from a Fabry patient (R301Q)
Description: FIG. 4B depicts results in which each inhibitor was added to the culture medium of R301Q lymphoblasts at a concentration of 100 μM. Cells were subsequently incubated for 4 days. After being washed twice with phosphate-buffered saline, the intracellular enzyme activity was determined with 4-MU-α-Gal as the substrate.
R301Q lymphoblasts were cultured with DGJ (4) ([…]), α-allo-HNJ (9) (▪), α-galacto-HNJ (10) (▴), or β-1-C-butyl-DGJ (16) (♦) at 1-1000 μM for 4 days before being collected for enzyme assay.
In FIG. 6B, R301Q lymphoblasts were cultured with calystegine B2 (18) and the results are shown therein. In FIG. 6C, R301Q lymphoblasts were cultured with N-methyl calystegine A3 (19) and the results are shown therein. In FIG. 6D R301Q lymphoblasts were cultured with N-methyl calystegine B2 (20) at 100-1000 μM for 4 days before being collected for enzyme assay and the results are shown therein.
as §1
Cells were cultured in the presence or absence of inhibitor for 4 days. After being washed twice with phosphate-buffered saline (PBS), the cells were harvested and homogenized in 200 μl of H2O, and 10 μl of the supernatant obtained by centrifugation at 10,000 g was incubated at 37° C. with 50 μl of the substrate solution composed by 6 mM 4-methylumbelliferyl α-D-galactoside (4-MU-α-Gal) and 90 mM N-acetylgalactosamine in 0.1 M citrate buffer (pH 4.5) for enzyme assay. One unit of intracellular enzyme activity was defined as one nmol of 4-methylumbelliferone released per hour at 37° C.

[6] = test system: globotriaosylceramide metabolism; assay: Intracellular globotriaosylceramide metabolism with inhibitor in the medium; format: cell-based; settings: 20 μM in the medium
[7] = target: T4, glucocerebrosidase (β-Glu), N370S/N370S (Homo sapiens, UniProt P04062, N409S); assay: Intracellular enhancement of β-Glu activity in Gaucher fibroblasts (N370S/N370S); format: cell-based
T4 construct: endogenous in cells; host or cells: human Gaucher patient fibroblasts, genotype N370S/N370S
T4 sequence (P04062 40-536 N409S): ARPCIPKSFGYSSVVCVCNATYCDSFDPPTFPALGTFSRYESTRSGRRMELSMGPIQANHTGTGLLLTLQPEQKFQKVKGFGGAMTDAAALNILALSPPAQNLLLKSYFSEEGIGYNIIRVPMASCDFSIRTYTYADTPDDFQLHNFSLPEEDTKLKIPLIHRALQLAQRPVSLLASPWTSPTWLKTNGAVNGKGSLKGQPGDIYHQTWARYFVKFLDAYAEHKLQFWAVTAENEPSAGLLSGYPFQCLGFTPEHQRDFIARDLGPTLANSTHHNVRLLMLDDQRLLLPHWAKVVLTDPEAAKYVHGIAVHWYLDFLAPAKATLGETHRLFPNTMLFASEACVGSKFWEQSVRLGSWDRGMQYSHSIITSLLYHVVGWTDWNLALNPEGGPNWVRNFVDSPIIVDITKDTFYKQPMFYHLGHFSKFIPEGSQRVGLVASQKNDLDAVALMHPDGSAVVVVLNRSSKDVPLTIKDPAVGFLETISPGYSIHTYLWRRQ

almond β-galactosidase = settings: cited from earlier work

With OC[C@H]1NC[C@H](O)[C@@H](O)[C@H]1O [compound 4, 1-Deoxygalactonojirimycin] the “increase of residual β-Gal activity in BGF-7 fibroblasts” value ([1]; 500 μM, 5 days, FIG. 7A) was 27 fold, the “β-Gal enhancement effect in fibroblasts of infant type disease (BGF-1 and BGF-6)” value ([1]; DGJ 500 μM, 4-epi-isofagomine 50 μM, 5 days) was “not efficient” and the “intracellular β-Gal activity in GM1-gangliosidosis fibroblasts (summary)” value ([1]; concentration ranges of 50-500 μM) was “effectively enhance”. The “inhibition mode toward α-Gal A (Lineweaver-Burk plots)” value (human lysosomal α-Gal A) was “competitive inhibitors”, the “mutant enzyme activity in lymphoblasts from Fabry patients” value (mutant α-Gal A (R301Q) [2]) was “enhanced the mutant enzyme activity” and the “enzyme activity in major organs of transgenic mice” value (mutant (R301Q) α-Gal A) was “substantially elevated the enzyme activity”. The “in vitro stability of mutant α-Gal A (R301Q)” value (mutant α-Gal A (R301Q) [3]) was “effectively increased in vitro stability”, the “inhibition of coffee bean α-galactosidase (in words)” value [4] was “extremely powerful inhibitor” and the “α-Gal A enzyme activity in R301Q lymphoblasts reached, % of normal” value (mutant α-Gal A (R301Q) [5]; 100 μM, 4 days) was 49 % of normal. The “increase of α-Gal A enzyme activity in R301Q lymphoblasts” value (mutant α-Gal A (R301Q) [5]; inhibitor at 100 μM, 4 days) was “about 14 fold”, the “α-Gal A activity in R301Q lymphoblasts with increasing inhibitor concentration” value (mutant α-Gal A (R301Q) [5]; range 1-100 μM, FIG. 5) was “elevated with increasing inhibitor concentration” and the “intracellular inhibition of globotriaosylceramide metabolism” value [6] was “did not cause intracellular inhibition”.
In the case of OC[C@H]1CNC[C@@H](O)[C@@H]1O [compound 33, isofagomine], the “increase of intracellular β-Glu activity in Gaucher fibroblasts” value ([7]; N370S/N370S, 1-50 μM in the culture medium, FIG. 8A) is reported as 55-80%, the “residual β-Glu activity in Gaucher cells, time course” value ([7]; N370S/N370S, day 1 or 2, FIG. 8B) is reported as “did not change” and the “increase of β-Glu activity in Gaucher cells, time course” value ([7]; N370S/N370S, day 5, FIG. 8B) is reported as “more than 80%”. For the same compound, the “β-Glu enhancement effect at high concentration” value ([7]; N370S/N370S, higher than 50 μM) was “nullified the enhancement effect”, the “intracellular β-Glu activity in Gaucher fibroblasts (summary)” value ([7]; concentration ranges of 0.05-100 μM) was “effectively enhance” and the “inhibition of almond β-galactosidase (in words)” value (almond β-galactosidase) was “potent inhibitor”.
